Reference: patent US5336763A, “Trisazo dye and dye composition containing the same” (Orient Chemical Industries, Ltd., priority 1992, dated 1994)
Where two headings read alike, the source gives them in different places.

Columns and labels:
[1] = background; cited from earlier work
strains TA98 = assay type: cell-based
Method: Regarding various specimen solutions respectively containing trisazo dyes obtained in Examples 1 to 11 to the present invention and dyes of Comparative Examples 1 to 3, the number of mutant colonies was determined using strains TA98. 2. When the ratio is less than 2, it is "negative" and, when the ratio is more than 2, it is "positive", and the results are shown in Table. 1.

Compound: Nc1ccc(N=Nc2ccc(N=Nc3c(S(=O)(=O)[O-])cc4cc(S(=O)(=O)[O-])c(N=Nc5ccc(N=Nc6ccc(N)cc6N)cc5)c(O)c4c3N)cc2)c(N)c1.[Na+].[Na+] [C.I. Direct Black 19]
- Ames test [1]: false positive or positive

Compound: Cc1cc(-c2ccc(N=Nc3c(S(=O)(=O)[O-])cc4cc(S(=O)(=O)[O-])c(N=Nc5ccccc5)c(O)c4c3N)c(C)c2)ccc1N=Nc1ccc(N)cc1N.[Na+].[Na+] [C.I. Direct Black 154]
- Ames test [1]: false positive or positive

Compound: Cc1cc(-c2ccc(N=Nc3c(S(=O)(=O)O)cc4cc(S(=O)(=O)O)c(N=Nc5ccc(S(=O)(=O)O)cc5)c(O)c4c3N)c(C)c2)ccc1N=Nc1ccc(O)cc1O [compound 3, reference compound]
- Ames test: ratio of number of colonies to control (strains TA98; 20 μg/plate, with S-9): 1.20
- Ames test: ratio of number of colonies to control (strains TA98; 20 μg/plate, without S-9): 0.92
- Ames test: ratio of number of colonies to control (strains TA98; 78 μg/plate, with S-9): 2.24
- Ames test: ratio of number of colonies to control (strains TA98; 78 μg/plate, without S-9): 1.00
- Ames test: ratio of number of colonies to control (strains TA98; 313 μg/plate, with S-9): 4.16
- Ames test: ratio of number of colonies to control (strains TA98; 313 μg/plate, without S-9): 2.56
- Ames test: ratio of number of colonies to control (strains TA98; 1250 μg/plate, with S-9): 1.12
- Ames test: ratio of number of colonies to control (strains TA98; 1250 μg/plate, without S-9): 3.56
- Ames test: ratio of number of colonies to control (strains TA98; 5000 μg/plate, with S-9): 0.16
- Ames test: ratio of number of colonies to control (strains TA98; 5000 μg/plate, without S-9): 0.96
- AMES evaluation (strains TA98; strains TA98): Positive (when the ratio is more than 2, it is "positive")

Compound: C.I. Direct Black 168
- Ames test [1]: false positive or positive
